Molecules are shown by their SMILES.

From patent US7355074B2, “Compounds having aromatic rings and side-chain amide-functionality and a method for transporting monovalent anions across biological membranes using the same” (The University of Maryland, priority 2003, dated 2008) come the findings set out here.

A short description of experiment [1]: pH changes in liposomes experiencing a Cl- gradient (oligophenoxyacetamides). It is filed as biochemical. The protocol:
FIG. 2B illustrates alkanization of the vesicular aqueous compartment upon application of compounds 1-6 to a suspension of NaCl-containing vesicles in isosmomolar Na2SO4 buffer. Concentration of compounds 1-6 in the vesicular suspension was 20 μm (4 mol %). Legend for traces denotes use of oligocompounds 1, 2, 3, 4, 5, 6.
Liposome Preparation for Fluorimetric Assays. Egg yolk L-α-phosphatidylcholine (EYPC ethanol solution, […], 79 μmol) was dissolved in a CHCl3/MeOH mixture, the solution was evaporated under reduced pressure and the resulting thin film was dried under high vacuum for 2 h. The lipid film was hydrated in 1.2 mL of phosphate buffer (10 mM sodium phosphate, pH=6.4, 75-100 mM MnX, M=N^+, K^+, X=Cl^−, SO4^2−, n=1,2) containing 10 μM HPTS (pyranine, 8-hydroxypyrene-1,3,6-trisulfonic acid trisodium salt) for 40 min. During hydration, the suspension was submitted to 5 freeze-thaw cycle (liquid nitrogen, water at rt). The large multilamellar liposome suspension (1 mL) was submitted to high-pressure extrusion at rt (21 extrusions through a 0.1 μm polycarbonate membrane afforded a suspension of LUVs with an average diameter of 100 nm). The LUV suspension was separated from extravesicular dye by size exclusion chromatography (SEC) (stationary phase: Sephadex G-10, mobile phase: phosphate buffer) and diluted with the same phosphate buffer to give a stock solution with a lipid concentration of 11 mM (assuming 100% of lipid was incorporated into liposomes).
Analysis of pH changes in the liposomes experiencing a CT gradient. a) Outwardly directed gradient of Cl:HPTS-loaded vesicles (100 μL of the stock solution), filled with a saline phosphate buffer (10 mM sodium phosphate, pH 6.4, 100 mM NaCl) were suspended in 1.9 mL of an isosmotic phosphate sulfate buffer (10 mM sodium phosphate, pH 6.0, 75 mM Na2SO4) and placed into a fluorimetric cell. The emission of HPTS at 510 nm was monitored with excitation wavelengths at 403 and 460 nm simultaneously. During the experiment, 20 μL of a 0-2 mM DMSO solution of the compound of interest was added through an injection port. Intravesicular pH values were obtained as described for pH-stat transport assays. At the end of experiment, the aqueous compartment of liposomes was equilibrated with extravesicular solution by lysis of liposomes with detergent (40 μL of 5% aqueous Triton X100). b) Inwardly directed gradient of Cl:HPTS-loaded vesicles (100 μL of the stock solution), filled with a isoosimomolar sulfate phosphate buffer (10 mM sodium phosphate, pH 6.0, 75 mM Na2SO4) were suspended in 1.9 mL of an isosmotic phosphate saline buffer (10 mM sodium phosphate, pH 6.4, 100 mM NaCl) and placed into a fluorimetric cell. Further analysis was conducted as described for the case of an outwardly directed gradient of […]. Analysis of the electrostatic potential on the surface of liposomes. LUVs (100 μL of stock solution, 100 mM KCl inside and outside or 75 mM Na2SO4 inside and outside) were suspended in 1.9 mL of 100 mM NaCl buffer containing 60 nM safranin O (a potential-sensitive dye). Safranin O emission was monitored at 580 nm with excitation at 520 nm. During the course of the experiment, 20 μL of a 0-0.12 mM DMSO solution of valinomycin or 0-2 mM of 3-8 DMSO solution was added. Experiments were completed by injection of 20 μL of 1 mM aqueous solution of the defect-inductive peptide melittin.

Experiment [2] can be described thus: 1H NMR binding experiment in CDCl3 with n-Bu4-NCl. As to the method: (§1) FIG. 7 illustrates a series of […] spectra (400 mHz, CDCl3, 22° C.) of calixarene tetrabutylamide in the presence of different species: (A) the compound alone (5 mm); (B) the compound with 1 equiv. of Bu4 NCl; (C) the compound after washing CDCl3 solution of the compound with an aqueous solution of 0.5 m HCl; (D) after washing CDCl3 solution of the compound with an aqueous solution of 0.5 M H2SO4.
(§2) To obtain evidence for Cl^− binding by 2, ^1H NMR experiments were run in CDCl3 using n-Bu4-NCl and HCl as Cl^− sources. Anion receptors usually show chemical shift perturbation upon anion complexation, particularly for amide NH protons that hydrogen bond to the anion. […] Calix[4]arene tetrabutylamide 2 does, however, bind HCl. Thus, shaking a CDCl3 solution of 2 with aqueous HCl led to disappearance of the amide NH proton and a significant upfield shift of the […] protons (FIG. 4c).

Experiment [3] is described as follows: sodium picrate extraction in CDCl3 monitored by 1H NMR. In kind it is binding. As to the method:
FIG. 9 ^1H NMR spectrum (400 MHz, CDCl3, 22° C.) of (A) calixarene octabutylamide (5 mM) in CDCl3, (B) the same compound after addition of 1 equiv. of NaPic. (C) the same compound after addition of 2 equiv. of NaPic.
The secondary amide NH and the core aromatic ring framework, in this case the calix[4]arene framework, are essential for the HCl transport activity of 2. Calix[4]arene octabutylamide 3 was used as a negative control for tetrabutylamide 2, as the lack of amide NH protons in 3 would preclude Cl^− binding. Instead, 3 should be a cation ionophore, much like tetrakis(diethylcarbamoylmethoxy)-p-tert-butylcalix[4]arene-1,3-alt that coordinates cations in the solid-state and solution. To confirm that 3 binds Na^+, sodium picrate extraction in CDCl3 was monitored by ^1H NMR spectroscopy. Complexation of the salt by 3 was evident. Two distinct complexes were formed, corresponding to a 1:1 and a 2:1 Na^+:3 stoichiometry. The 1:1 complex was generated by adding 1 equiv of solid sodium picrate to a solution of 3. Binding this Na^+ led to a symmetry loss for 3, indicated by doubling of the ^1H NMR peaks. […] In contrast, sodium picrate extraction by calix[4]arene tetrabutylamide 2 was not detected by ^1H NMR spectroscopy.

The nature of experiment [4]: 1H NMR binding experiment in CDCl3, HCl extraction. The protocol:
as §1, §2

[5] abbreviates: 4 mol %, NaCl-loaded liposomes in Na2SO4 buffer.

`CCCCNC(=O)COc1ccccc1Cc1cccc(Cc2ccccc2OCC(=O)NCCCC)c1OCC(=O)NCCCC` [trimer 3, Tris-(N-butyl-2-phenoxyacetamide)]: in experiment [1] (setting [5]), the pH gradient generated result is reported as “approximately are pH unit” and the “time to reach the pH gradient” value was ≤ 1.5 minutes. In addition, the “time the pH gradient remained stable” value in experiment [1] (4 mol %, until the liposomes were lysed) is listed as 5 minutes. For the same molecule, the “relative ability to alter the pH in liposomes under a Cl− gradient” value in experiment [1] (NaCl-loaded liposomes in Na2SO4 buffer) was “most active compound in the series tested”. In addition, the “transport under inwardly directed Cl− gradient” value in experiment [1] (sulfate-loaded liposomes suspended in Cl− buffer) is “transports both Cl^− and H^+ into sulfate-loaded liposomes”.

Consider `CCCCNC(=O)COc1c2cccc1Cc1cccc(c1OCC(=O)NCCCC)Cc1cccc(c1OCC(=O)NCCCC)Cc1cccc(c1OCC(=O)NCCCC)C2` [calix[4]arene tetrabutylamide 2, Calix[4]arene tetrabutylamide], for which the “binding of the naked Cl− anion” value in experiment [2] is listed as “does not bind strongly”. In addition, in experiment [3], the sodium picrate extraction entry is reported as “not detected”. Besides, the HCl binding entry in experiment [4] is listed as “binds HCl”.
